In publication PMC5350573 (Redox Biology, 2017):

What was measured:
Type in all cases: biochemical
catalase [1] = target: T1, catalase (Bos taurus, UniProt P00432); test: amperometric; conditions: read-out: % increase at 400 μM
T1 sequence (P00432 2-527): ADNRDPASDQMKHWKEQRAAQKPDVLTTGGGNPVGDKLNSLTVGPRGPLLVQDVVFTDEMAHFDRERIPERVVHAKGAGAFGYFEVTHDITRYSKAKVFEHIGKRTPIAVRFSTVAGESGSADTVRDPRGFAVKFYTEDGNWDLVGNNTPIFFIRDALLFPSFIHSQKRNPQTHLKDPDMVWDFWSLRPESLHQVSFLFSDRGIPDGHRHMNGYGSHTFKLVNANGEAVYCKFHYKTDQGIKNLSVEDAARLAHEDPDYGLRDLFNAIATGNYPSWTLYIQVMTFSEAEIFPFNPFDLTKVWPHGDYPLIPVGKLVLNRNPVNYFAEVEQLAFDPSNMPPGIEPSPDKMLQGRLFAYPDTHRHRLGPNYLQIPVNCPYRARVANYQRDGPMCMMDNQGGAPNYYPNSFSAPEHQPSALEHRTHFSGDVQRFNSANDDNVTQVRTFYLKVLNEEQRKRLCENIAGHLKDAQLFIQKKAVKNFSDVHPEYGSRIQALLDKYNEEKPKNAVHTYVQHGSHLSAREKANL

catalase [2] = target: T1, catalase; test: amperometric H2S release from DTT by isolated catalase
catalase [3] = target: T1, catalase; test: amperometric H2S release from SO2

`NC(=O)C1=CN([C@@H]2O[C@H](COP(=O)(O)OP(=O)(O)OC[C@H]3O[C@@H](n4cnc5c(N)ncnc54)[C@H](OP(=O)(O)O)[C@@H]3O)[C@@H](O)[C@H]2O)C=CC1` [NADPH] was tested, and the activation at 400 µM (catalase [1]) was roughly 50%.

For `O[C@H](CS)[C@H](O)CS` (racemic) [DTT, dithiothreitol], the “amperometric H2S release from DTT by isolated catalase” value (catalase [2]) was “catalase concentration-dependent increase in H2S release (Fig. 7B) confirming that catalase reacts directly with DTT to generate H2S”.

For `O=S=O` [SO2, sulfur dioxide], the EC50 (catalase [3]) was “~ between 300 μM and 1 mM”.
